Reference: patent US11510921B2, “Bromocriptine formulations” (VEROSCIENCE LLC, priority 2017, dated 2022)
Where a name gives a salt, the structure may show the parent alone.

Assays:
[1] = Heat and humidity stability of formulations versus traditional formulation (Table 11); conditions: 40 C and 75% RH; short chain saccharide substituted for lactose
Method: (§1) Effect of constituents on the stability and solubility of bromocriptine formulations. […] The stability and solubility of the formulations are assessed versus a traditional formulation of bromocriptine mesylate as described in Table 1.

[2] = Water solubility of formulations versus traditional formulation (Table 11); conditions: 20 C
Method: as §1

[3] = Browning (degradation) reaction of bromocriptine with excipients in heated aqueous suspension; assay type: physicochemical
Method: A series of reaction vessels were prepared containing various combinations of bromocriptine mesylate, Mg stearate, and/or lactose, with or without citric acid, in aqueous suspension and reacted at 60° C. for 55 hours. Additionally, samples were prepared wherein the Mg stearate was replaced/substituted with stearic acid.
2 ml of distilled water was added to the samples, which were then mixed by vortexing, placed in a reaction chamber with thermostat set at 50° C. for 24 hours, then (after 24 hours) set at 60° C. The color change of the sample solutions/mixtures were evaluated by comparing the color of the solution with a Standardized Color Chart; the color intensities of the sample solutions/mixtures (from clear to dark brown) was graded at specified time points from time 0 to time 55 hours (see FIG. 2). In FIG. 2, a number “0” indicates a clear solution or white suspension; a number “40” represents the darkest solution/suspension observed.

SMILES	Relative Improvement In Heat & Humidity Stability Versus Traditional Bromocriptine Mesylate Pharmaceutical Formulation [1]	Relative Improvement in Water Solubility Versus Traditional Bromocriptine Mesylate Pharmaceutical Formulation ([2]; fatty acid or triglyceride + short chain saccharide)	Relative Improvement in Water Solubility Versus Traditional Bromocriptine Mesylate Pharmaceutical Formulation ([2]; fatty acid or triglyceride substituted for Mg stearate)	Relative Improvement in Water Solubility Versus Traditional Bromocriptine Mesylate Pharmaceutical Formulation ([2]; short chain saccharide substituted for lactose)	bromocriptine degradation and browning reaction ([3]; addition of citric acid and substitution of Mg stearate with stearic acid)	bromocriptine degradation and browning reaction ([3]; addition of citric acid, Mg stearate alone or Mg stearate and lactose)	browning reaction ([3]; bromocriptine exposed to both Mg stearate and lactose)	browning reaction ([3]; bromocriptine with Mg stearate in aqueous environment, absence of lactose)	bromocriptine degradation ([3]; substitution of Mg stearate with solid castor oil, compared with stearic acid)	bromocriptine degradation and browning reaction ([3]; substitution of Mg stearate with stearic acid, with or without lactose)
CC(C)C[C@H]1C(=O)N2CCC[C@H]2[C@]2(O)O[C@](NC(=O)[C@@H]3C=C4c5cccc6[nH]c(Br)c(c56)C[C@H]4N(C)C3)(C(C)C)C(=O)N12 [Bromocriptine Mesylate, (5′α)-2-bromo-12′-hydroxy-2′-(1-methylethyl)-5′-(2-methylpropyl)-ergotaman-3′,6′,18-trione monomethanesulfonate salt]	+	−	−	−						
CC(C)C[C@H]1C(=O)N2CCC[C@H]2[C@]2(O)O[C@](NC(=O)[C@@H]3C=C4c5cccc6[nH]c(Br)c(c56)C[C@H]4N(C)C3)(C(C)C)C(=O)N12 [bromocriptine, (5′α)-2-bromo-12′-hydroxy-2′-(1-methylethyl)-5′-(2-methylpropyl)-ergotaman-3′,6′,18-trione]					attenuated bromocriptine degradation and the browning reaction by the greatest magnitude	attenuated bromocriptine degradation and the browning reaction	A more intense browning reaction occurred	a browning product was produced	attenuated bromocriptine degradation to an even greater extent	attenuated bromocriptine degradation and the browning reaction
